The results in this text go back to ChEMBL document CHEMBL1201862, “PubChem BioAssay data set” (2004).

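Briefly, cells in 96-well plates were exposed to five compound concentrations for 48 h, and endpoints were estimated by linear interpolation. At the GI50, growth is halved.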 Active and inactive are the calls of the source. Rule as the data show it: active = GI50 up to about 1.1 µM and inactive = higher. Non-standard residues stand in square brackets, D forms with d. Residues, ends and D or L forms follow the SMILES beside them. *: point of attachment. Cbz = O=C(OCc1ccccc1)*; Boc = CC(C)(C)OC(=O)*; Aib = CC(C)(N)C(=O)O; OBn = c1ccc(CO*)cc1; OtBu = CC(C)(C)O*; βAla = NCCC(=O)O

Test systems include HCT-116; MDA-MB-231; RXF 393; SK-MEL-28; OVCAR-5; SF-268; Hs-578T; 786-0; U-251; CCRF-CEM; HT-29; OVCAR-4; NCI-H460; M14; SF-295; SR; CAKI-1; KM12; SNB-75; HCC 2998.
Test in all cases: NCI anticancer screen, dose series, 48 h

As to `COc1cc(NCCC(=O)O)c2ncccc2c1`, the GI50 in the test with HCT-116, with MDA-MB-231, with RXF 393, with SK-MEL-28, with OVCAR-5 and in the test on SF-268 was > 100 µM (inactive) each time. Also, the GI50 is 23.9 µM (inactive) with Hs-578T; > 100 µM (inactive) with 786-0; > 100 µM (inactive) with U-251; > 100 µM (inactive) with CCRF-CEM; > 100 µM (inactive) in the test with HT-29; > 100 µM (inactive) with OVCAR-4. The GI50 with NCI-H460, in the test with M14, in the test on SF-295 and with SR was > 100 µM (inactive) throughout.

In the case of `[N-]=[N+]=Nc1cc(=O)n(-c2ccccc2)c(=O)n1-c1ccccc1`, the GI50 in the test with HCT-116, with CAKI-1, with MDA-MB-231, with RXF 393, with KM12 and in the test on SK-MEL-28 was > 100 µM (inactive) in each case. The GI50 in the test with OVCAR-5, in the test with SNB-75, in the test on SF-268, with Hs-578T, with 786-0 and with U-251 was > 100 µM (inactive) throughout. For the same compound, the GI50 with CCRF-CEM, in the test on HT-29, with OVCAR-4, in the test on M14, in the test on SF-295 and in the test with SR was > 100 µM (inactive) each time.

Consider `O=[N+]([O-])c1cccnc1NCC1(CO)CC(Cc2ccccc2)C1` (stereo not drawn), for which the GI50 in the test on HCT-116, in the test on CAKI-1, with MDA-MB-231, with RXF 393, in the test on KM12 and with SK-MEL-28 was > 100 µM (inactive) throughout. In addition, the GI50 with OVCAR-5, in the test with SNB-75, in the test with SF-268, in the test on Hs-578T, in the test on 786-0 and in the test on U-251 was > 100 µM (inactive) in each case. In addition, the GI50 in the test on HCC 2998, in the test on CCRF-CEM, in the test on HT-29, in the test on OVCAR-4, in the test on NCI-H460 and in the test with SF-295 was > 100 µM (inactive) in each case. Further, in the test with SR, the GI50 was > 100 µM (inactive).

As for `CC(C)(C)OC(=O)CC(NC(=O)OC(C)(C)C)C(=O)NC(CCCCNC(=O)OCc1ccccc1)C(=O)NC(C)(C)C(=O)NCCC(=O)OCc1ccccc1` (stereo not drawn) (Boc-D(OtBu)K(Cbz)[Aib][βAla]-OBn; configuration not given here), the GI50 with HCT-116, in the test on CAKI-1, in the test with MDA-MB-231, in the test with RXF 393, in the test on KM12 and with SK-MEL-28 was > 100 µM (inactive) throughout. Also, the GI50 in the test with OVCAR-5, with SNB-75, in the test with SF-268, in the test on Hs-578T, in the test with 786-0 and in the test with U-251 was > 100 µM (inactive) in each case. Also, the GI50 with HT-29, with OVCAR-4, with NCI-H460, with M14, in the test on SF-295 and in the test with SR was > 100 µM (inactive) throughout.

Consider `O=C(O)c1oc(C(=O)O)c(C(=O)O)c1C(=O)O`, for which the GI50 in the test with HCT-116, in the test on CAKI-1, in the test on MDA-MB-231, in the test with RXF 393, in the test on KM12 and in the test on SK-MEL-28 was > 100 µM (inactive) throughout. Besides, the GI50 with OVCAR-5, with SF-268, in the test with Hs-578T, with 786-0, in the test with U-251 and in the test with CCRF-CEM was > 100 µM (inactive) throughout. Besides, the GI50 with HT-29, in the test on OVCAR-4, in the test with NCI-H460, with M14, in the test with SF-295 and in the test with SR was > 100 µM (inactive) throughout.

Consider `CC1=NN(c2cccc(Cl)c2)C2(C1)C(Cl)C(=O)N2c1nc2ccccc2s1` (stereo not drawn), for which the GI50 with HCT-116 was 19.2 µM (inactive); with CAKI-1, 33.1 µM (inactive); with MDA-MB-231, 21.5 µM (inactive); in the test with RXF 393, 27.9 µM (inactive); in the test on KM12, 22.3 µM (inactive); in the test with OVCAR-5, 44.4 µM (inactive). Besides, the GI50 in the test with SNB-75 is 21.6 µM (inactive); with SF-268, 33.2 µM (inactive); with Hs-578T, 45.2 µM (inactive); in the test with 786-0, 21.1 µM (inactive); in the test with U-251 it was 23.9 µM (inactive); in the test with HCC 2998, 55.1 µM (inactive). In addition, the GI50 in the test with HT-29 was 33.6 µM (inactive); with OVCAR-4, 34.7 µM (inactive); in the test with NCI-H460 it was 36.6 µM (inactive); in the test on M14 it was 22.5 µM (inactive); with SF-295, 31.2 µM (inactive); in the test with SR, 15.2 µM (inactive).

As for `C[C@]12CC/C(=N\O)C=C1CC[C@@H]1[C@@H]2CC[C@]2(C)C(=N/O)/C(=C/c3ccc([N+](=O)[O-])cc3)C[C@@H]12`, the GI50 with HCT-116 is 3.07 µM (inactive); in the test on CAKI-1 it was 2.29 µM (inactive); in the test with MDA-MB-231 it was 6.64 µM (inactive); in the test on RXF 393, 59.6 µM (inactive); with KM12, 4.04 µM (inactive); in the test on SK-MEL-28, 9.25 µM (inactive). Further, the GI50 with SNB-75 is 6 µM (inactive); in the test with SF-268, 3.16 µM (inactive); with Hs-578T, 3.5 µM (inactive); in the test on 786-0, 6.65 µM (inactive); with CCRF-CEM, 2.5 µM (inactive); with HT-29, 4.94 µM (inactive). The GI50 in the test with OVCAR-4 was 4.73 µM (inactive); in the test on NCI-H460, 44.8 µM (inactive); in the test on M14, 4.05 µM (inactive); in the test with SF-295 it was 3.56 µM (inactive); in the test on SR it was 2.79 µM (inactive).

Consider `COc1ccc(C(=O)/C=C/c2cccnc2)cc1OC`, for which the GI50 is 4.36 µM (inactive) in the test with HCT-116; 4.44 µM (inactive) in the test on CAKI-1; 11.1 µM (inactive) in the test on MDA-MB-231; 5.81 µM (inactive) in the test with RXF 393; 16.2 µM (inactive) in the test on SK-MEL-28; 12.1 µM (inactive) with OVCAR-5. Moreover, the GI50 with SNB-75 is 11.8 µM (inactive); with SF-268, 7.55 µM (inactive); in the test on Hs-578T it was 14.6 µM (inactive); with 786-0 it was 4.51 µM (inactive); with U-251 it was 5.09 µM (inactive); with CCRF-CEM it was 3.51 µM (inactive). Also, the GI50 with HT-29 was 4.1 µM (inactive); with OVCAR-4, 12 µM (inactive); in the test with M14, 13.4 µM (inactive); with SF-295, 13.4 µM (inactive); with SR, 1.54 µM (inactive).

Consider `COc1cc(-c2oc3c(OC)cc(OC)c(O)c3c(=O)c2OC)cc(OC)c1OC`, for which the GI50 is 4.32 µM (inactive) in the test with HCT-116; 14.4 µM (inactive) in the test with CAKI-1; 2.84 µM (inactive) with MDA-MB-231; 8.28 µM (inactive) in the test with RXF 393; > 100 µM (inactive) in the test on KM12; > 100 µM (inactive) with SK-MEL-28. Moreover, the GI50 in the test on OVCAR-5 was > 100 µM (inactive); in the test with SNB-75, 1.73 µM (inactive); in the test on SF-268, 6.95 µM (inactive); in the test on Hs-578T, 2.93 µM (inactive); with 786-0, 4.02 µM (inactive); with U-251, 4.65 µM (inactive). The GI50 with HCC 2998 is > 100 µM (inactive); in the test on HT-29, > 100 µM (inactive); in the test on OVCAR-4 it was 2.23 µM (inactive); in the test with NCI-H460, 4.47 µM (inactive); in the test with M14, > 100 µM (inactive); with SF-295 it was 2.59 µM (inactive). The GI50 with SR was > 100 µM (inactive).

Consider `CC1=C(C)C2(C#N)C(=O)N3C(=NC(c4ccco4)NC3c3ccco3)C2(C#N)C(c2ccco2)N1` (stereo not drawn), for which the GI50 in the test with HCT-116, with CAKI-1, in the test on MDA-MB-231, in the test with RXF 393, in the test on KM12 and in the test with SK-MEL-28 was > 100 µM (inactive) in each case. For the same compound, the GI50 in the test with OVCAR-5, in the test with SF-268, with Hs-578T, with 786-0, with U-251 and in the test on HCC 2998 was > 100 µM (inactive) each time. In addition, the GI50 with CCRF-CEM, with HT-29, with OVCAR-4, with NCI-H460, with M14 and in the test on SF-295 was > 100 µM (inactive) throughout. In the test on SR, the GI50 is > 100 µM (inactive).

For `CS(=O)(=O)OCC1CN(S(C)(=O)=O)c2cc(O)ccc21` (stereo not drawn), the GI50 with HCT-116 was 2.77 µM (inactive); in the test on CAKI-1 it was 3.42 µM (inactive); with MDA-MB-231 it was 2.3 µM (inactive); with RXF 393, 1.19 µM (inactive); with KM12, 2.96 µM (inactive); in the test with SK-MEL-28, 3.47 µM (inactive). For the same compound, the GI50 is 2.84 µM (inactive) in the test with OVCAR-5; 2.37 µM (inactive) in the test with SNB-75; 0.524 µM (active) with SF-268; 3.52 µM (inactive) with Hs-578T; 3.67 µM (inactive) with 786-0; 2.36 µM (inactive) in the test with U-251. Also, the GI50 in the test on HCC 2998 is 1.89 µM (inactive); with CCRF-CEM it was 1.01 µM (active); with HT-29 it was 2.81 µM (inactive); in the test on OVCAR-4 it was 2.67 µM (inactive); in the test with NCI-H460, 2.96 µM (inactive); in the test on SF-295, 3.42 µM (inactive). In addition, in the test on SR, the GI50 was 2.05 µM (inactive).
